Data taken from patent publication US20220291235A1, “ACOUSTO-THERMAL SHIFT ASSAY FOR LABEL-FREE PROTEIN ANALYSIS” (THE REGENTS OF THE UNIVERSITY OF COLORADO - A BODY CORPORATE, priority 2019, published 2022).

Key:
[1] = target: T1, citrate synthase (CS) from porcine heart (Sus scrofa, UniProt P00889); assay: Conventional thermal shift assay, SYPRO DSF assay (DSF-TSA), CS-OAA binding; conditions: OAA present
T1 construct: citrate synthase (CS) from porcine heart (Millipore Sigma); purchased Millipore Sigma; host or cells: porcine heart
T1 sequence (P00889 28-464): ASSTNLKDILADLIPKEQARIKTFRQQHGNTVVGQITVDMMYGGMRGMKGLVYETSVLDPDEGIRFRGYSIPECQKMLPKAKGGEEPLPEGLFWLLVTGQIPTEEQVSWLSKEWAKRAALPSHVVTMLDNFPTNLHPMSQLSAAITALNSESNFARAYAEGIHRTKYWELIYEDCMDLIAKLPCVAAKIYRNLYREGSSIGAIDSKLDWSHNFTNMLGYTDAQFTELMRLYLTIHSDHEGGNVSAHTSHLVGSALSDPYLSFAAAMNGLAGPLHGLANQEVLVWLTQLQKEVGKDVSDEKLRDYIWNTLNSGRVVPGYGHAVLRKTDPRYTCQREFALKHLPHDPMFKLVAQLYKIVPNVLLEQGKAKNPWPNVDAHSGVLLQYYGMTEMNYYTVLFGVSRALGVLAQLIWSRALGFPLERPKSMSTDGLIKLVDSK
Procedure: In some embodiments, SAW-driven protein unfolding and concentration can be used for analysis of protein-ligand binding to analyze the melting temperature (Tm) and its shift (Δtm) upon protein-ligand binding. Gray intensity of the precipitated and concentrated proteins was measured and plotted as a function of SAW time in A-TSA. See, FIG. 5A. Two control conventional TSA methods were performed in parallel measuring the data using either a differential scanning fluorimetry (DSF) assay or a bicinchoninic acid (BCA) assay. DSF, the most popular C-TSA method, utilizes dye fluorescence as a measure of protein unfolding. Matulis et al., “Thermodynamic stability of carbonic anhydrase: measurements of binding affinity and stoichiometry using ThermoFluor” J. Biochemistry 44:5258-5266 (2005). On the other hand, BCA quantifies the amount of remaining soluble proteins after thermal unfolding. Brown et al., “Protein measurement using bicinchoninic acid: elimination of interfering substances” Anal. Biochem. 180:136-139 (1989).
SYPRO DSF assay: SYPRO Orange melting curves were collected using the 7900HT Fast Real-Time PCR System. […] To analyze melting curves, the fluorescence was normalized to the starting temperature and to no protein controls. The data was then scaled to interval (0,1) and then the replicates were averaged, and standard deviation calculated.

[2] = target: T1, citrate synthase (CS) from porcine heart; assay: Conventional thermal shift assay, BCA assay (BCA-TSA), CS-OAA binding
Procedure: (§1) In some embodiments, SAW-driven protein unfolding and concentration can be used for analysis of protein-ligand binding to analyze the melting temperature (Tm) and its shift (Δtm) upon protein-ligand binding. Gray intensity of the precipitated and concentrated proteins was measured and plotted as a function of SAW time in A-TSA. See, FIG. 5A. Two control conventional TSA methods were performed in parallel measuring the data using either a differential scanning fluorimetry (DSF) assay or a bicinchoninic acid (BCA) assay. DSF, the most popular C-TSA method, utilizes dye fluorescence as a measure of protein unfolding. Matulis et al., “Thermodynamic stability of carbonic anhydrase: measurements of binding affinity and stoichiometry using ThermoFluor” J. Biochemistry 44:5258-5266 (2005). On the other hand, BCA quantifies the amount of remaining soluble proteins after thermal unfolding. Brown et al., “Protein measurement using bicinchoninic acid: elimination of interfering substances” Anal. Biochem. 180:136-139 (1989). BCA assay: For thermal gradient profiling, a gradient program was created using a PTC-200 thermal cycler (MJ Research, Reno, N.V., USA) to cover the temperature points indicated in each figure. A PCR plate was prepared with 25 μL per well of recombinant protein or lysate and sealed (4titude Random Access, PN 4ti-0960/RA 96-well plate). […]

[3] = target: T1, citrate synthase (CS) from porcine heart; assay: Acousto-thermal shift assay (A-TSA), CS-OAA binding; conditions: same SAW actuation (19.6 MHz, 3 Watts), CS 15 μM
Source text: (§2) Specifically, two identical SAWs were generated by applying an AC (alternating current) signal to a pair of interdigital transducers (IDTs) deposited on the surface of a lithium niobate piezoelectric substrate. A standing SAW was formed within a 1×10 mm^2 polydimethylsiloxane (PDMS) microchannel. The microchannel was bonded on top of a substrate between these two IDTs. See, FIGS. 4A(i) and FIG. 4B. […] Most proteins rapidly precipitate and aggregate after their unfolding. See, FIG. 4A(ii).
(§3) Simultaneously, the standing SAW aggregates and concentrates precipitated protein along the acoustic pressure nodes and/or antinodes. See, FIG. 4A(iii). Gray intensity (Im) of the precipitated and aggregated proteins was analyzed and plotted as a function of SAW time, giving rise to a sigmoidal melting curve. See, FIG. 4A(iv). The melting time (Tm) was determined as the time point when half of proteins were unfolded (i.e. herein, a 50% change of gray intensity occurs where Im=(Imax+Imin)/2.). Using this simple analysis, the time shift Δτm between between two samples can be measured at a given SAW power and analyzed to compare conditions or ligands that stabilize or destabilize proteins. Overall, this new technique provides a rapid, simple and efficient workflow for analysis of changes in apparent melting curves. […]

human hemoglobin (Hb) [4] = target: T2, human hemoglobin (Hb) (Homo sapiens, UniProt P68871+P69905); assay: Acousto-thermal shift assay (A-TSA), Hb-Pal binding; conditions: SAW 19.6 MHz, 3 Watts, Hb 31 μM
T2 construct: purchased Millipore Sigma
Source text: as §2, §3

human hemoglobin (Hb) [5] = target: T2, human hemoglobin (Hb); assay: Conventional thermal shift assay, BCA assay (BCA-TSA), Hb-Pal binding
Procedure: as §1

T2 sequence (P69905 2-142 limits assumed): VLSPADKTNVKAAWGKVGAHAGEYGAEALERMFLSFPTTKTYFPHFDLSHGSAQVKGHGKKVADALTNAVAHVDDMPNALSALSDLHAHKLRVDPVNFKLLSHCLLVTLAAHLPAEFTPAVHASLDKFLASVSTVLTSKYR
T2 sequence (P68871 2-147 limits assumed): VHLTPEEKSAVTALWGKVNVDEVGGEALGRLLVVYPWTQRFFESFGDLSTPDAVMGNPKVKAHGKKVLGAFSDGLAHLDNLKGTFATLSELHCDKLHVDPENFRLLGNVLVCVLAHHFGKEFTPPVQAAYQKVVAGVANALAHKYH

tm shift of CS as detected in DSF assay [1]	increase of Tm of CS (60.3° C.) upon ligand binding ([2]; 1 mM OAA)	increase of Tm of CS (60.3° C.) upon ligand binding ([2]; 2 mM OAA)	increase of tm of CS (36.23 s) upon ligand binding ([3]; 1 mM OAA)	increase of tm of CS (36.23 s) upon ligand binding ([3]; 2 mM OAA)	reduction of melting time (Tm) of Hb (46.85 s) upon ligand binding (human hemoglobin (Hb) [4]; 0.62 mM Pal)	reduction of melting time (Tm) of Hb (46.85 s) upon ligand binding (human hemoglobin (Hb) [4]; 1.24 mM Pal)	decrease of Tm of Hb (59.1° C.) upon ligand binding (human hemoglobin (Hb) [5]; 0.62 mM Pal)	decrease of Tm of Hb (59.1° C.) upon ligand binding (human hemoglobin (Hb) [5]; 1.24 mM Pal)	SMILES
small and not statistically significant	2.0 °C	2.9 °C	10.45 s	15.77 s	–	–	–	–	O=C(O)CC(=O)C(=O)O [OAA, oxaloacetic acid]
–	–	–	–	–	3.52 s	7.30 s	0.7 °C	1.1 °C	COc1cc2c(cc1OC)-c1cc3ccc(OC)c(OC)c3c[n+]1CC2 [Pal, palmatine chloride]
